Data set [1] can be described thus: Stability/transformation in aqueous solution (1H NMR, UV-vis, CZE). It counts as physicochemical. The procedure:
A Bruker Avance III HD Ascend 500 Plus instrument (Billerica, MA) was used for solution NMR studies. Spectra were recorded with a WATERGATE water suppression pulse scheme in the presence of 10% (v/v) D2O in most cases. DSS internal standard was added to samples to obtain reference peaks.

The conditions of data set [2]: 10 mM HEPES pH 7.4, 25.0 °C. The protocol: Distribution coefficients (D 7.4) were determined using n-octanol/buffered aqueous solution (10 mM HEPES, pH = 7.4) partitioning (Table ).
The traditional shake-flask method was used to obtain the distribution coefficient of the complex in n-octanol/buffered aqueous solution (10 mM HEPES, pH = 7.4) using UV–vis spectrophotometry. The measurements and data evaluation were performed as in our previous work.

Data set [3] relates to Colo205 cells. In words: MTT cytotoxicity assay, Colo205. It counts as cell-based, human. The conditions noted are these: 72 h incubation, MTT; read-out: IC50 Colo205. The protocol: Its cytotoxicity was determined in the human HeLa cervical cancer cell line, the drug-sensitive Colo205 and its resistant counterpart, the ABCB1 expressing Colo320 colon adenocarcinoma cancer cell lines, using the colorimetric 3-(4,5-dimethylthiazol-2-yl)-2,5-diphenyltetrazolium bromide (MTT) test. To investigate the selectivity toward cancer cells, the noncancerous fibroblast CCD-19Lu cell line was included.
Drug-sensitive Colo205 (ATCC-CCL-222) and ABCB1 (MDR1)-LRP expressing and doxorubicin-resistant Colo320/MDR-LRP (ATCC-CCL-220.1) human colonic adenocarcinoma cell lines were purchased from LGC Promochem (Teddington, U.K.). The cells were cultured in RPMI 1640 medium supplemented with 10% heat-inactivated fetal bovine serum, 2 mM L-glutamine, 1 mM Na-pyruvate, and 10 mM HEPES.
The tested compound was dissolved in DMSO to prepare a 5 mM stock solution, which was diluted in complete culture medium, to study the effect of compounds on cell growth of human colonic adenocarcinoma cell lines. Doxorubicin was used as the positive control. The cells were treated with a trypsin-versene (EDTA) solution. Cells were adjusted to a density of 1 × 10^4 cells in 100 μL of the appropriate culture medium and were added to each well, with the exception of the medium control wells. Except for the semiadherent Colo205 and Colo320 cell lines, the other adherent cell lines were seeded 24 h prior to the assay. Then, stock solutions were diluted in the appropriate culture medium, and 2-fold serial dilutions of compounds were prepared in 100 μL of the medium, horizontally. The final volume of the wells containing compounds and cells was 200 μL. The plates were incubated at 37 °C for 72 h; at the end of the incubation period, 20 μL of MTT solution (from a stock solution of 5 mg/mL) was added to each well. […] Cell growth was determined by measuring the optical density (OD) at 540/630 nm with a Multiscan EX ELISA reader (Thermo Labsystems, Cheshire, WA). […]
For orientation: Formazan colour is commonly taken as a measure of viable cells.

For data set [4], the target named is T1, cathepsin V (Homo sapiens, UniProt O60911).
T1 construct: made in house; host or cells: Pichia pastoris
In words: Relative inhibition of cathepsin V. It counts as biochemical. Particulars: 50 μM; substrate Z-Phe-Arg-AMC; pH 5.5. The source says:
Relative inhibition is expressed as a percentage of the decrease in reaction velocity in the presence of an inhibitor, in comparison to the reaction velocity in the absence of an inhibitor. For that purpose, the specific fluorogenic substrates Z-Arg-Arg-7-amido-4-methylcoumarin (Z-Arg-Arg-AMC) and 2-aminobenzoyl (Abz)-Gly-Ile-Val-Arg-Ala-Lys-(Dnp)-OH were used for cathepsin B endopeptidase and exopeptidase activities, respectively, and Z-Phe-Arg-AMC was used for cathepsin L and V activities.
Human recombinant cathepsin B was expressed in E. coli, recombinant cathepsin V was expressed in Pichia pastoris, and human recombinant cathepsin L was expressed in E. coli, as reported. − For the determination of cathepsin B endopeptidase and exopeptidase activities, 100 mM phosphate buffer (pH 6.0) and 60 mM acetate buffer (pH 5.0) were used, respectively, and for the determination of cathepsin V and L activities, 100 mM acetate buffer (pH 5.5) was used. All buffers contained 0.1% PEG 8000 (Sigma-Aldrich, St. Louis, MO), 5 mM cysteine, and 1.5 mM EDTA. Prior to the assay, the enzymes were activated in the assay buffer for 5 min at 37 °C.
To determine the effect of inhibitors on enzyme activity, the following substrates were used: Z-Arg-Arg-AMC (final concentration 5 μM, Z-RR-AMC; Bachem, Bubendorf, Switzerland) for cathepsin B endopeptidase activity, Abz-Gly-Ile-Val-Arg-Ala-Lys-(Dnp)-OH (final concentration 1 μM, Abz-GIVRAK-(Dnp)-OH; Bachem) for cathepsin B exopeptidase activity, and Z-Phe-Arg-AMC (final concentration 2 μM, Z-FR-AMC; Bachem) for cathepsin V and L activity. The substrate ([…]) at a final concentration and inhibitor ([…]) at a concentration of 50 μM were added to the wells of a black microplate. The reaction was then initiated by adding 90 μL of activated enzyme (final concentrations: 5 nM cathepsin B for its endopeptidase activity, 0.5 nM cathepsin B for its exopeptidase activity, 2.5 ng/mL for cathepsin V, and 0.02 nM for cathepsin L) in the assay buffer. The formation of fluorescent degradation products during the reaction was continuously monitored at 460 ± 10 nm with excitation at 380 ± 20 nm for Z-Arg-Arg-AMC and Z-Phe-Arg-AMC and at 420 ± 10 nm with excitation at 320 ± 20 nm for Abz-Gly-Ile-Val-Arg-Ala-Lys(Dnp)-OH at 37 °C on a Tecan Infinite M1000 (Mannedorf, Switzerland) spectrofluorometer. All assay mixtures contained 5% (v/v) DMSO. To prevent false-positive inhibition due to the formation of compound aggregates, 0.01% Triton X-100 was used. All measurements were performed in triplicate and repeated twice. The relative inhibition was calculated using the following equation: relative inhibition (%) = 100(1 – v i/v o), where v i and v o designate the reaction velocities in the presence and absence of inhibitor, respectively.

Data set [5] relates to MCF-10A neoT cells. Briefly: MTS cell viability assay. The conditions noted are these: 24 h, concentrations used to monitor ECM degradation.
Protocol: The cells were seeded at 6 × 10^4 cells/well into a 96-well microplate and incubated overnight for attachment. The cells were then treated with the inhibitor (at 1, 2.5, or 5 μM) or DMSO (0.1%) in 100 μL for 24 h. After incubation, 10 μL of the reagent MTS was added to the wells, and the absorbance of formazan was measured at 492 nm on a Tecan Infinite M1000 instrument (Mannedorf, Switzerland). Cell viability (%) was expressed as the ratio between absorbance in the presence of the compounds and that in the presence of DMSO. All assays were performed in quadruplicate and repeated twice.

From PMC12391994, “Synthesis of a fac-Tricarbonylrhenium(I) Complex with Pyrithione, Its Physicochemical Characterization, and Assessment of Biological Effects” (ACS Omega, 2025) come the findings set out here.

Where two headings read alike, the source gives them in different places.

T1 sequence (O60911 114-334): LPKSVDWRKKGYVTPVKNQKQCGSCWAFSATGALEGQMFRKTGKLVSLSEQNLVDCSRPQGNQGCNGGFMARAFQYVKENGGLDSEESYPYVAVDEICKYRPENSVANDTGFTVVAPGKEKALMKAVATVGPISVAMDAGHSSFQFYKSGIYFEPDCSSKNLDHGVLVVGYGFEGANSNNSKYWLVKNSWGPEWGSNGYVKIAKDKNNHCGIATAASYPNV

Take `N#Cc1ccccc1.[C-]#[O+].[C-]#[O+].[C-]#[O+].[O-]n1ccccc1=S.[Re+]` [complex 4, fac-[Re(CO)3(pth)(benzonitrile)]]: in data set [1] (water pH 6.8 and pH 7.4 (phosphate or HEPES buffer), kept in the dark, 1H NMR), the “time for complete release of the benzonitrile ligand” value is reported as at most 1 h. Besides, the “dissociation of the pyrithione ligand” value in data set [1] (water pH 6.8 and pH 7.4 buffers, dark, 48 h) is on record as “did not occur within 48 h”. The “log D7.4” value in data set [2] (c(Cl–) 0 mM) is reported as “+1.61 ± 0.18”; in data set [2] (c(Cl–) 4 mM) it was “+1.67 ± 0.14”; in data set [2] (c(Cl–) 24 mM) it was “+1.71 ± 0.13”; in data set [2] (c(Cl–) 100 mM) it was “+1.71 ± 0.14”. Further, in data set [3], the concentration for half-maximal inhibition (IC50) (in general, the concentration that inhibits the measured activity by half) was 9.22 ± 0.53 µM. Further, in data set [4], the “relative inhibition cathepsin V” value is on record as 9.1 ± 1.0%. The “effect on viability of MCF-10A neoT cells” value in data set [5] is given as “did not impair the viability”.
